Experiments:
fungal inoculum = experiment: organism not typed; type: cell-based; details: read-out: % growth inhibition
[1] = tested on: Magnaporthe grisea (Pyricularia oryzae); experiment: whole plant or invertebrate; type: in vivo, Magnaporthe grisea (Pyricularia oryzae) on M201 rice plants; details: Pyricularia oryzae, 144 h, read-out: % Control RB
fungal mycelium = experiment: organism not typed; type: cell-based; details: read-out: % growth inhibition

In the case of CC#CCN1N=C(c2cccc(Cl)c2)CCC1=O [Compound 37, 6-(3-chlorophenyl)-2-(2'-butynyl)-4,5-dihydropyridazinone], the inhibition at 100 ppm (fungal inoculum) is reported as 100% and the pest or weed control at 200 ppm [1] is reported as 90%.

Compound CCC#CCn1nc(-c2ccc(C(C)(C)C)cc2)ccc1=O [Compound 111] has an inhibition at 25 ppm (fungal inoculum) of 100% and a pest or weed control at 200 ppm [1] of 0%.

Work on CCC#CCN1N=C(c2ccc3ccccc3c2)CCC1=O [Compound 136] yielded an inhibition at 1 ppm (fungal inoculum) of 84.6% and a pest or weed control at 200 ppm [1] of 99%.

With CCC#CCN1N=C2c3ccccc3CC2CC1=O (stereo not drawn) [Compound 142] the inhibition at 50 ppm (fungal inoculum) was 100% and the pest or weed control at 200 ppm [1] was 50%.

For CCC#CCN1N=C(c2ccc(C(F)(F)F)cc2)CCC1=O [Compound 41], the inhibition at 10 ppm (fungal inoculum) was 89.2% and the pest or weed control at 200 ppm [1] was 0%.

O=C1CCC(c2ccc(Cl)cc2)=NN1CC#CC(F)=C(F)F [Compound 78] gave an inhibition at 0.5 ppm (fungal inoculum) of 100% and a pest or weed control at 200 ppm [1] of 0%.

With CC#CCN1N=C(c2ccc(Cl)c(Cl)c2)CCC1=O [Compound 23] the inhibition at 5 ppm (fungal inoculum) was 100% and the pest or weed control at 200 ppm [1] was 50%.

Compound CC#CCN1N=C(c2cc(Cl)cc(Cl)c2)CCC1=O [Compound 38] has an inhibition at 100 ppm (fungal inoculum) of 75.2% and a pest or weed control at 200 ppm [1] of 75%.

In the case of CC#CCN1N=C(c2c(OC)ccc3ccc(OC)cc23)CCC1=O [Compound 138], the inhibition at 100 ppm (fungal inoculum) is reported as 64.6% and the pest or weed control at 200 ppm [1] is reported as 0%.

CCC#CCN1N=C(c2cc3ccccc3s2)CCC1=O [Compound 144] was tested, and the inhibition at 1 ppm (fungal inoculum) was 100%.

CC#CCN1N=C(c2ccccc2)CCCC1=O [Compound 139, 2-(2-butynyl)-7-phenyl-1,2-diazapin-3-one] was tested, and the inhibition at 100 ppm (fungal inoculum) was 65% and the pest or weed control at 200 ppm [1] was 0%.

Work on O=C1CCC(c2ccc(Cl)cc2)=NN1CC#Cc1cccs1 [Compound 67] yielded an inhibition at 5 ppm (fungal inoculum) of 83.6%.

With CCC#CCN1N=C(c2ccc(CC)cc2)CCC1=O [Compound 59] the inhibition at 10 ppm (fungal inoculum) was 100% and the pest or weed control at 200 ppm [1] was 0%.

COC(=O)C#CCN1N=C(c2ccc(Cl)cc2)CCC1=O [Compound 55] showed an inhibition at 50 ppm (fungal inoculum) of 100% and a pest or weed control at 200 ppm [1] of 0%.

CC#CCN1N=C(c2ccc(Cl)cc2)CC(C)C1=O (stereo not drawn) [Compound 27] showed an inhibition at 50 ppm (fungal inoculum) of 100% and a pest or weed control at 200 ppm [1] of 0%.

Compound CCCC#CCN1N=C(c2ccc(Cl)cc2)CCC1=O [Compound 29] has an inhibition at 1 ppm (fungal inoculum) of 86.1% and a pest or weed control at 200 ppm [1] of 95%.

CC#CCN1N=C(c2ccc(Cl)cc2)C(C)CC1=O (stereo not drawn) [Compound 26, 6-(4-chlorophenyl)-5-methyl-2-(2'-butynyl)-4,5-dihydropyridazinone] was tested, and the inhibition at 50 ppm (fungal inoculum) was 96.3% and the pest or weed control at 200 ppm [1] was 95%.

Compound CC(C)C#CC=CCN1N=C(c2ccc(Cl)cc2)CCC1=O [Compound 70] has an inhibition at 5 ppm (fungal inoculum) of 100% and a pest or weed control at 200 ppm [1] of 0%.

Work on COC(C)C#CCN1N=C(c2ccc(Cl)cc2)CCC1=O (stereo not drawn) [Compound 48, 6-(4-chlorophenyl)-2-(4'methoxy-2'-pentynyl)-4,5-dihydropyridazinone] yielded an inhibition at 50 ppm (fungal inoculum) of 100% and a pest or weed control at 200 ppm [1] of 90%.

N#CCN1N=C(c2ccc(Cl)cc2)CCC1=O [Compound 35] was tested, and the inhibition at 50 ppm (fungal inoculum) was 85% and the pest or weed control at 200 ppm [1] was 75%.

In the case of CC#CCN1N=C(c2ccc3ccc4cccc5ccc2c3c45)CCC1=O [Compound 141], the inhibition at 100 ppm (fungal inoculum) is reported as 23.9% and the pest or weed control at 200 ppm [1] is reported as 0%.

For C=C(C)C#CCN1N=C(c2ccc(Cl)cc2)CCC1=O [Compound 45], the inhibition at 10 ppm (fungal inoculum) was 100% and the pest or weed control at 200 ppm [1] was 0%.

In the case of CC(=O)OC(C)C#CCN1N=C(c2ccc(Cl)cc2)CCC1=O (stereo not drawn) [Compound 49, 6-(4-chlorophenyl)-2-(4'acetoxy-2'-pentynyl)-4,5-dihydropyridazinone], the inhibition at 50 ppm (fungal inoculum) is reported as 100% and the pest or weed control at 200 ppm [1] is reported as 90%.

With O=C1CCC(c2ccc(Cl)cc2)=NN1CC#CCCO [Compound 50] the inhibition at 50 ppm (fungal inoculum) was 100% and the pest or weed control at 200 ppm [1] was 0%.

O=C1CCC(c2ccc(Cl)cc2)=NN1Cc1cccs1 [Compound 36, 6-(4-chlorophenyl)-2-(2'-thienylmethyl)-4,5-dihydropyridazinone] showed an inhibition at 50 ppm (fungal inoculum) of 100% and a pest or weed control at 200 ppm [1] of 90%.

Compound CCC#CCN1N=C(c2cc(Cl)c(C)c(Cl)c2Cl)CCC1=O [Compound 43] has an inhibition at 10 ppm (fungal inoculum) of 22.3% and a pest or weed control at 200 ppm [1] of 0%.

CC#CCN1N=C(c2ccc(Cl)c([N+](=O)[O-])c2)CCC1=O [Compound 39] was tested, and the inhibition at 50 ppm (fungal inoculum) was 94.6% and the pest or weed control at 200 ppm [1] was 0%.

Compound CCC#CCn1nc(-c2ccc(CC)cc2)ccc1=O [Compound 110] has an inhibition at 10 ppm (fungal inoculum) of 100% and a pest or weed control at 200 ppm [1] of 0%.

CCC#CCN1N=C(c2ccc(SC)cc2)CCC1=O [Compound 61] gave an inhibition at 10 ppm (fungal inoculum) of 95.3% and a pest or weed control at 200 ppm [1] of 90%.

CCC#CCN1N=C(c2ccc(Cl)c(Cl)c2)CCC1=O [Compound 28, 6-(3,4-dichlorophenyl)-2-(2'-pentynyl)-4,5-dihydropyridazinone] was tested, and the inhibition at 1 ppm (fungal inoculum) was 100% and the pest or weed control at 200 ppm [1] was 95%.

O=C1CCC(c2ccc(Cl)cc2)=NN1CC#CCCl [Compound 72, 6-(4-chlorophenyl)-2-(4'-chloro-2'-butynyl)-4,5-dihydropyridazinone] gave an inhibition at 0.5 ppm (fungal inoculum) of 96.2% and a pest or weed control at 200 ppm [1] of 90%.

With CCC#CCN1N=C(c2ccc(OCC)cc2)CCC1=O [Compound 66] the inhibition at 25 ppm (fungal mycelium) was 100% and the pest or weed control at 200 ppm [1] was 0%.

Work on CC#CCN1N=C(c2cccc3ccccc23)CCC1=O [Compound 134, 6-(1-naphthyl)-2-(2'-pentynyl)-4,5-dihydropyridazinone] yielded an inhibition at 50 ppm (fungal inoculum) of 66.5% and a pest or weed control at 200 ppm [1] of 0%.

O=C1CCC(c2ccc(Cl)cc2)=NN1c1ccccc1 [Compound 14] was tested, and the inhibition at 50 ppm (fungal inoculum) was 100% and the pest or weed control at 200 ppm [1] was 0%.

Compound CCC#CCn1nc(-c2cc3ccccc3s2)ccc1=O [Compound 147] has an inhibition at 50 ppm (fungal inoculum) of 98.1%.

Compound CCC#CCn1nc(-c2ccc(Cl)c(Cl)c2)ccc1=O [Compound 112] has an inhibition at 10 ppm (fungal inoculum) of 100% and a pest or weed control at 200 ppm [1] of 90%.

Work on CC(F)C#CCN1N=C(c2ccc(Cl)cc2)CCC1=O (stereo not drawn) [Compound 53] yielded an inhibition at 50 ppm (fungal inoculum) of 100% and a pest or weed control at 200 ppm [1] of 100%.

With CCC#CCN1N=C(c2ccc(Cl)c(F)c2)CCC1=O [Compound 74, 6-(4-chloro-3-fluorophenyl)-2-(2'-pentynyl)-4,5-dihydropyridazinone] the inhibition at 1 ppm (fungal mycelium) was 100% and the pest or weed control at 200 ppm [1] was 75%.

Compound CC#CCN1N=C(c2ccc(Br)cc2)CCC1=O [Compound 31] has an inhibition at 5 ppm (fungal inoculum) of 92.4% and a pest or weed control at 200 ppm [1] of 90%.

CCC#CCN1N=C(c2ccc(Cl)cc2F)CCC1=O [Compound 73] gave an inhibition at 50 ppm (fungal inoculum) of 94.4% and a pest or weed control at 200 ppm [1] of 95%.

CC#CCN1N=C(c2ccc(Cl)c(F)c2)CCC1=O [Compound 83] gave an inhibition at 0.5 ppm (fungal mycelium) of 81.3% and a pest or weed control at 200 ppm [1] of 90%.

With CCCCCCCC#CCN1N=C(c2ccc(Cl)cc2)CCC1=O [Compound 85] the inhibition at 100 ppm (fungal mycelium) was 100% and the pest or weed control at 200 ppm [1] was 0%.

CC#CCN1N=C(c2ccc(C(F)(F)F)cc2)CCC1=O [Compound 42] gave an inhibition at 10 ppm (fungal inoculum) of 91.7%.

With C#CC#CCN1N=C(c2ccc(Cl)cc2)CCC1=O [Compound 93, 6-(4-chlorophenyl)-2-(2',4'-pentadiynyl)-4,5-dihydropyridazinone] the inhibition at 0.5 ppm (fungal mycelium) was 100% and the pest or weed control at 200 ppm [1] was 0%.

In the case of CCC#CCN1N=C(c2cc(Cl)c(C)c(Cl)c2)CCC1=O [Compound 44], the inhibition at 5 ppm (fungal inoculum) is reported as 87%.

In the case of CCC#CCN1N=C(c2ccc(OC)cc2)CCC1=O [Compound 81], the inhibition at 2.5 ppm (fungal mycelium) is reported as 95.8% and the pest or weed control at 200 ppm [1] is reported as 95%.

For CCC#CCN1N=C(c2ccc(Cl)cc2OC)CCC1=O [Compound 99], the inhibition at 1 ppm (fungal mycelium) was 100% and the pest or weed control at 200 ppm [1] was 0%.

For C[Si](C)(C)C#CCN1N=C(c2ccc(Cl)cc2)CCC1=O [Compound 86], the inhibition at 100 ppm (fungal mycelium) was 80% and the pest or weed control at 200 ppm [1] was 0%.

Work on O=C1CCC(c2ccc(Cl)cc2)=NN1CC=C(Br)CBr [Compound 75] yielded an inhibition at 100 ppm (fungal mycelium) of 100% and a pest or weed control at 200 ppm [1] of 0%.

CC#CCN1N=C(c2ccccc2)CC(c2ccccc2)C1=O (stereo not drawn) [Compound 30] was tested, and the inhibition at 50 ppm (fungal inoculum) was 41.2%.

With CCC#CCN1N=C(c2ccc(C#N)cc2)CCC1=O [Compound 64] the inhibition at 25 ppm (fungal mycelium) was 100% and the pest or weed control at 200 ppm [1] was 0%.

O=C1CCC(c2ccc(Cl)cc2)=NN1CC#CCC1CCCCC1 [Compound 95] was tested, and the inhibition at 10 ppm (fungal mycelium) was 22.2% and the pest or weed control at 200 ppm [1] was 0%.

For CCC#CCn1nc(-c2ccc(Cl)cc2)c(F)c(F)c1=O [Compound 122, 6-(4-chlorophenyl)-4,5-difluoro-2-(2'-pentynyl)-pyridazinone], the inhibition at 100 ppm (fungal mycelium) was 84.6% and the pest or weed control at 200 ppm [1] was 0%.

In the case of CCC#CCN1N=C(c2ccc(F)cc2)CCC1=O [Compound 82], the inhibition at 2.5 ppm (fungal mycelium) is reported as 100% and the pest or weed control at 200 ppm [1] is reported as 0%.

In the case of C#CC#CCn1nc(-c2ccc(Cl)cc2)ccc1=O [Compound 125], the inhibition at 0.5 ppm (fungal mycelium) is reported as 89.5% and the pest or weed control at 200 ppm [1] is reported as 0%.

C#CCn1nc(-c2ccc(Cl)cc2)ccc1=O [Compound 118] showed an inhibition at 200 ppm (fungal mycelium) of 100% and a pest or weed control at 200 ppm [1] of 0%.

Compound O=C1CCC(c2ccc(Cl)cc2)=NN1CC#Cc1ccc(Cl)cc1 [Compound 68] has an inhibition at 5 ppm (fungal inoculum) of 10.4%.

In the case of CCOC(C#CCN1N=C(c2ccc(Cl)cc2)CCC1=O)OCC [Compound 87, 6-(4-chlorophenyl)-2-(4'-aldehydo-2'-butynyl)-4,5-dihydropyridazinone, diethyl acetal], the inhibition at 100 ppm (fungal mycelium) is reported as 100% and the pest or weed control at 200 ppm [1] is reported as 75%.

With CCCCCC#CCN1N=C(c2ccc(Cl)cc2)CCC1=O [Compound 96] the inhibition at 10 ppm (fungal mycelium) was 94.5% and the pest or weed control at 200 ppm [1] was 0%.

Compound CCC#CCn1nc(-c2ccc(Cl)cc2)c(F)cc1=O [Compound 123] has an inhibition at 100 ppm (fungal mycelium) of 100% and a pest or weed control at 200 ppm [1] of 99%.

CCC#CCN1N=C(c2ccc(Br)cc2)CCC1=O [Compound 91] showed an inhibition at 1 ppm (fungal mycelium) of 100% and a pest or weed control at 200 ppm [1] of 90%.

O=C1CCC(c2ccc(Cl)cc2)=NN1CC=CBr [Compound 69] showed an inhibition at 50 ppm (fungal inoculum) of 100%.

O=C(O)C#CCN1N=C(c2ccc(Cl)cc2)CCC1=O [Compound 54, 6-(4-chlorophenyl)-2-(3'-carboxy-2'-propynyl)-4,5-dihydropyridazinone] showed an inhibition at 200 ppm (fungal mycelium) of 71.4% and a pest or weed control at 200 ppm [1] of 0%.

With CC#CCN1N=C(c2ccc(Cl)c(C)c2)CCC1=O [Compound 63] the inhibition at 200 ppm (fungal mycelium) was 100% and the pest or weed control at 200 ppm [1] was 0%.

Reference: patent US5726162A (priority 1996, dated 1998)
